Assays:
[1] = target: mTOR (Homo sapiens (Human), UniProt P42345); test: biochemical; type: binding
[2] = in vivo; conditions: male, SD, rat, po, 4 mg/kg
[3] = male, SD, rat, in vivo, iv, 2 mg/kg
[4] = in vivo; conditions: male, SD, rat, iv, 2 mg/kg
[5] = target: PI3Kα (Homo sapiens (Human), UniProt P42336); test: biochemical; type: binding
Chain of PI3Kα (P42336 whole entry): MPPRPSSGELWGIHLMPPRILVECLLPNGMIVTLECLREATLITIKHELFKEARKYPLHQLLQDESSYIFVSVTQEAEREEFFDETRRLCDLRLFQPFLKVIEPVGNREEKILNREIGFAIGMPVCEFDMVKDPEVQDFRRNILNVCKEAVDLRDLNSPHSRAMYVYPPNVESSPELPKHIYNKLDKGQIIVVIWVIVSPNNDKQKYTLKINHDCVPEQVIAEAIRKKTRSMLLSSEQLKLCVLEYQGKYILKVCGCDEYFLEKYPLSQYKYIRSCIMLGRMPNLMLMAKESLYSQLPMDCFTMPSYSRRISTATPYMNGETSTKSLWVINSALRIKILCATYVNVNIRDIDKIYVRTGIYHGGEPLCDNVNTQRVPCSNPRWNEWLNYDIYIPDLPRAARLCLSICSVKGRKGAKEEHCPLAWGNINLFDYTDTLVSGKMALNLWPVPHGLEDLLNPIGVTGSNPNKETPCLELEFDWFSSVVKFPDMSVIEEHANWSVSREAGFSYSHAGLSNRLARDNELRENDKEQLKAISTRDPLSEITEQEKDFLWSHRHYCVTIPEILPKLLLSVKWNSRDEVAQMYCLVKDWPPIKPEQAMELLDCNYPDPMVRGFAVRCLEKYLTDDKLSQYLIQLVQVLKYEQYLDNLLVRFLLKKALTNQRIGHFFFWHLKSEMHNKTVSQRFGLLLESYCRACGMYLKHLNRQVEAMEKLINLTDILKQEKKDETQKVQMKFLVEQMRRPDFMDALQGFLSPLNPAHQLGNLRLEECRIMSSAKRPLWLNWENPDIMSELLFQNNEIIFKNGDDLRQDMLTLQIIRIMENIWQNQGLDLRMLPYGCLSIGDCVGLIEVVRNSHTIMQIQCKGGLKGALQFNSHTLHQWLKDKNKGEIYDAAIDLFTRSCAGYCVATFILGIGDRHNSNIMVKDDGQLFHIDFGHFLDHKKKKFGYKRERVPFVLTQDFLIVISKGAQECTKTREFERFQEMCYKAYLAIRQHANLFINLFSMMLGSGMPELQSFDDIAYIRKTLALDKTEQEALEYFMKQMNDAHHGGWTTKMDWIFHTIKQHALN
Chain of PI3Kα (P27986 whole entry partner): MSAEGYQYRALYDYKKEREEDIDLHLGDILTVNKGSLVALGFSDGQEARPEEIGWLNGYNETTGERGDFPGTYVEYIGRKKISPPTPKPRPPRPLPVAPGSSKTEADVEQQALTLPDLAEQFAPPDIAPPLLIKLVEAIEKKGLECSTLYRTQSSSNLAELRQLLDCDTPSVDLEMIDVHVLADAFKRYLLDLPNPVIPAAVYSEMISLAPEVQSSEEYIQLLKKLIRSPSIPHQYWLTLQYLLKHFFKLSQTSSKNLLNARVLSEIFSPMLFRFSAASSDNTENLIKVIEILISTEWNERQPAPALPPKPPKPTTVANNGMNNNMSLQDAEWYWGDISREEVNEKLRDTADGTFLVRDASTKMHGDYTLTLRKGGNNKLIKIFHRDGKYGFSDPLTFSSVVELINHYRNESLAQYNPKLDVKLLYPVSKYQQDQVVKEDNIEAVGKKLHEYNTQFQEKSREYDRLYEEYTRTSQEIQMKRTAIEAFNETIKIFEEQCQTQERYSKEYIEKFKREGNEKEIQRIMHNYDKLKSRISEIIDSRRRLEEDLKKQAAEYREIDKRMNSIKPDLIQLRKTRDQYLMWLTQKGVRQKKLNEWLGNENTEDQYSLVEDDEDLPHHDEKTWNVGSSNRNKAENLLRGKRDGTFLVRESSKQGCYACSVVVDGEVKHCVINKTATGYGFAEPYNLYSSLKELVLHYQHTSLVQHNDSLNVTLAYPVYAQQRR

COc1ccc(-c2ccc3ncc4c(c3n2)N(C2CCN(C(=O)[C@@H](C)O)CC2)C(=O)N(C)C4)cn1 [Compound 86, (R)-1-(1-(2-hydroxypropanoyl)piperidin-4-yl)-9-(6-methoxypyridin-3-yl)-3-methyl-3,4-dihydropyrimido[5,4-c][1,5]naphthyridin-2(1H)-one] showed an IC50 [1] of 257 nM, an AUC [2] of 177 ng·h/mL and a Cmax [2] of 251 ng/mL. For the same compound, the Tmax [2] was 19.8 min, the bioavailability [2] was 58% and the half-life [2] was 62.4 min. It also gave a Cl_obs [3] of 227 mL/min/kg, a Vss_obs [3] of 3.58 L/kg and an AUC [4] of 154 ng·h/mL. It also gave a half-life [4] of 12 min and an IC50 [5] of 9.7 nM.
COc1ccc(-c2ccc3ncc4c(c3n2)N(C2CCNCC2)C(=O)N(C)C4)cn1 [Compound 114] showed an IC50 [1] of 732 nM and an IC50 [5] of 115 nM.

Source: patent US9284315B2, “Three-ring PI3K and/or mTOR inhibitor” (XUANZHU PHARMA CO., LTD., priority 2011, dated 2016)
